The values below come from a melting point compilation (Tetko et al.; mined from patent text by program, amines drawn as free bases though some values may be those of a salt).

A value given as a limit tells only on which side of the number the result lay.

As a reminder, the melting point is the temperature of the solid-liquid transition. On to `COc1ccnc(Cl)c1C#N`, for which the melting point is 168 to 171 °C. With `Cc1nc2nc(S(=O)(=O)Nc3c(Cl)cccc3Cl)nn2cc1Br` the figure was 215 to 216 °C; with `CS(=O)(=O)Nc1ccc(NC(=O)CN2CCC(Cc3ccc(F)cc3)CC2)cc1`, 169 to 171 °C.

With `O=C(Nc1ccc2[nH]c(=O)[nH]c2c1)C(=O)N1CCC(Oc2ccc(Cl)cc2)CC1`, the melting point fell in the range of 286 to 288 °C.

In the case of `O=C1CC(c2ccccc2)Nc2ccccc2N1Cc1ccccc1` (stereo not given), the melting point lay in the range of 132 to 133 °C. `COc1nc(C(=O)O)c(C(=O)NC(C)(C)C)s1` showed a melting point of 105 to 110 °C. Take `COC(=O)c1ccc(C2=NOC(c3cc(Cl)cc(Cl)c3)(C(F)(F)F)C2)cc1` (stereo not given): the melting point was 94 to 96 °C.

On to `O=C1c2ccccc2C(OCCc2ccccn2)N1c1ccc2ccc(Cl)nc2n1` (stereo not given), for which the melting point was 142 °C. In the case of `COC(=O)c1cc(C=O)cnc1C(=O)OC` it was 75 to 77 °C; in that of `O=C(O)Cc1ccc(OCc2ccc3ccccc3n2)c(-n2cccc2)c1`, 173 °C; in that of `CN(C)CCCn1c2c(c3cc(Br)ccc31)CCS(=O)(=O)CCC2`, 135 to 137 °C. With `COC(COc1ccc2oc(C(=O)O)c(C)c2c1)OC` the figure was 74 °C.

In turn, `FC(F)(F)c1ccc(Cl)cc1CN1CCNc2ncc(I)cc21` yielded a melting point of 189 to 191 °C.

Turning to `O=C(Nc1ccc(C(F)(F)F)cc1)Nc1cccc(C(=O)N2CCOCC2)n1`, the melting point was 208 to 210 °C. Consider `CCC(=O)Oc1cc(-c2nc3cc(F)ccc3s2)ccc1OC`, for which the melting point was determined as 150 °C. In the case of `O=C(Cn1nc(C(F)(F)F)cc1Cl)N1CCC(c2nc(C3=NOC(c4ccccc4)C3)cs2)CC1` (stereo not given) it was 128 to 131 °C; in that of `Cn1c(SCC(=O)C23CC4CC(CC(C4)C2)C3)nc2ccccc21`, 146 to 148 °C. With `Cc1ccc(C)n1-c1ccc2ccc3[nH]c(=O)c(=O)n(CC(=O)NCc4ccccc4)c3c2c1` the figure was 243 to 244 °C; with `O=C(O)Cn1cc(C(=O)O)c(=O)c2ccccc(=O)c21`, more than 250 °C; with `COCCOc1ccc(/C=C/C(=O)O)c(OC2CCCCC2)c1`, 102 to 114 °C.

Turning to `CCN(C)c1cc(Br)cc(S(=O)(=O)c2ccc(N)cc2)c1`, the melting point was 162 to 164 °C. In the case of `Cc1cccc(-c2nc3ccccn3c2-c2ccnc(-c3ccc(CN4CCOCC4)cc3)c2)n1` it was 156 °C; in that of `O=C1O[C@@H]2C[C@@]1(O)c1cc(-c3ccccc3)sc1[C@H]2O`, 168 to 173 °C; in that of `Cc1cc(CSCCC(=C(N)NCC(O)c2ccccc2)[N+](=O)[O-])sc1CN(C)C` (stereo not given), 114 to 115 °C. With `COC(=O)c1cc(OC(C)=O)c2cc(-c3ccc4c(c3)C(C)(C)CCC4(C)C)ccc2c1C` the figure was 170 °C; with `CCOc1nc(Br)cnc1N`, 84 °C; with `CNCCCNc1ccc2c(NC(=O)CC34CC5CC(CC(C5)C3)C4)c(C)ccc2n1`, 217 to 224 °C. With `[N-]=[N+]=Nc1ccc(C(=O)OCCOC(=O)C[C@@H](C(=O)O)n2c3ccccc3c3ccccc32)cc1` the figure was 55 °C.

As for `CCCc1[nH]c2cc(C(=O)OC)ccc2c1C(=O)C1CCCCC1`, the melting point was in the range of 136 to 137 °C. In the case of `Cc1ccc2c(c1)C(OC(C)C)=C(C(=O)O)S2=O` (stereo not given) it was 184 to 187 °C; in that of `CN1CCN(c2cc(Cl)c3c(c2)N(Cc2ccccc2)C(=O)N(Cc2cccc(O)c2)S3(=O)=O)CC1`, 170 to 172 °C; in that of `O=C1N(CCCCl)c2ccccc2C12COc1cc3c(cc12)OCO3` (stereo not given), 144 to 146 °C.

Compound `COC(=O)C(C)(O)c1ccc(-c2ccccc2)c(F)c1` (stereo not given) returned a melting point of 59 to 61 °C. `COc1cccc(CN2Cc3cc(OC)c(O)cc3CC2C)c1` (stereo not given) returned a melting point of 100 to 105 °C. With `CC(C)C(NC(=O)c1ccccc1)C(=O)O` (racemic) the figure was 125 to 128 °C.
